Results as given in US20030215788A1, “Cysteine thiol-protected peptides for use in immunoassays” (priority 1989, published 2003).

System: Antibodies to HIV-2
Test: EIA of dilutional series of HIV-2 positive sera
Assay type: binding, human
Protocol: Alternative methods of testing immunologic cross-reactivity were also used. In one such method L5 Peptides 39 and 39GC were tested by ELISA as previously described in U.S. Pat. No. 4,629,783. Briefly, stock solutions of peptides 39 and 39-GC were prepared in 6M Gu-HCl. Working dilutions of 20 µg/ml and 6 μg/ml respectively were prepared by dilution of stock solution 0 with 0.05M carbonate/bicarbonate buffer, pH 9.5. Wells of microtiter plates were filled with 100 μl of the working dilution of the peptides and allowed to stand overnight at room temperature. Coating solution was removed and 300 μl of blocking solution supra containing 0.5M ethanolamine was added for 1 hr. at room temperature. Blocking solution was removed and the plates were used immediately or allowed to dry and stored for later use.
Plasma samples were diluted (See Table 1) in sample dilution buffer (above) and 100 μl was added to individual wells. Samples were incubated for 30 min. at 37° C., then removed and the wells were washed six times with 0.15M NaCl, 0.05% Tween 20. One hundred microliters of goat antihuman Ig-horseradish peroxidase conjugate diluted in citrate buffer, pH 7.0, 1% normal goat serum was added to each well for 30 min at 37° C. prior to washing six times as above. The ELISA assay was developed by adding 100 μl/well of substrate solution (80 μg/ml tetramethyl benzidine, 0.0015% hydrogen peroxide in citrate/phosphate buffer, pH 6.0) for 30 min. at room temperature. Reactions were stopped with the addition of 100 μl of H2SO4 per well, and the ratio of the optical density at 450 nm to 630 nm was determined by an automated ELISA reader. The cutoff value for a positive result was set at 0.225 Absorbance Units above the average absorbance obtained for three known negative samples.
The immunoreactivity of HIV-2 peptides synthesized with protected cysteine thiol groups was determined. […] EIAs were performed as described above using viral lysates of HIV-1 and HIV-2 and peptides 39GC (HIV-1) and 41-2-3GC. Reactivity was determined for dilutions of two HIV-2 positive sera, F504282, obtained from a patient in New York, and “GOM,” provided by the Institut Pasteur.
The assays were EIAs performed generally as described above with varying dilutions of HIV-2 positive serum specimens.

Cys-Gly-Gly-Arg-Ile-Leu-Ala-Val-Glu-Arg-Tyr-Leu-Lys-Asp-Gln-Gln-Leu-Leu-Gly-Ile-Trp-Gly-Cys*-Ser-Gly-Lys-Leu-Ile-Cys*-NH2 [Peptide 39GC]
Reactivity in EIA (HIV-2 positive serum F504282 (A), 1:5): 0.049
Reactivity in EIA (HIV-2 positive serum F504282 (A), 1:10): 0.042
Reactivity in EIA (HIV-2 positive serum F504282 (A), 1:20): 0.037
Reactivity in EIA (HIV-2 positive serum F504282 (A), 1:40): 0.035
Reactivity in EIA (HIV-2 positive serum F504282 (A), 1:80): 0.033
Reactivity in EIA (HIV-2 positive serum F504282 (A), 1:160): 0.040
Reactivity in EIA (HIV-2 positive serum F504282 (A), 1:320): 0.031
Reactivity in EIA (HIV-2 positive serum F504282 (A), 1:640): 0.031
Reactivity in EIA (HIV-2 positive serum F504282 (A), 1:1280): 0.039
Reactivity in EIA (HIV-2 positive serum F504282 (A), 1:2560): 0.030
Reactivity in EIA (HIV-2 positive serum F504282 (A), Neat): 0.075
Reactivity in EIA (HIV-2 positive serum GOM (B), 1:2): 0.052
Reactivity in EIA (HIV-2 positive serum GOM (B), 1:4): 0.037
Reactivity in EIA (HIV-2 positive serum GOM (B), 1:8): 0.040
Reactivity in EIA (HIV-2 positive serum GOM (B), 1:16): 0.031
Reactivity in EIA (HIV-2 positive serum GOM (B), 1:32): 0.035
Reactivity in EIA (HIV-2 positive serum GOM (B), 1:64): 0.074
Reactivity in EIA (HIV-2 positive serum GOM (B), 1:128): 0.031
Reactivity in EIA (HIV-2 positive serum GOM (B), 1:256): 0.035
Reactivity in EIA (HIV-2 positive serum GOM (B), 1:512): 0.040
Reactivity in EIA (HIV-2 positive serum GOM (B), 1:1024): 0.037
